Assays:
DDR1 = biological target: T1, DDR1 (Homo sapiens, UniProt Q08345); assay: KINASESEEKER competition binding assay, DDR1; details: minimum 8-point curve, duplicate
T1 construct: purchased Luceome Biotechnologies, LLC
Experimental: Kinase assays were performed using KINASESEEKER™ (Luceome Biotechnologies, LLC; Tucson, AZ). KINASESEEKER™ is a homogeneous competition binding assay in which the displacement of an active site-dependent probe by an inhibitor is measured by a change in luminescence signal. Luminescence readout translates into a highly sensitive and robust assay with low background and minimal interference from test compounds. See J. Am. Chem. Soc., 2010, 132, 11727-11735.
Stock solutions of compounds were serially diluted in DMSO to make assay stocks. Prior to initiating IC50 determination, the test compounds were evaluated for false positives against split-luciferase. The compounds were screened against kinases at a minimum of 8 different concentrations in duplicate. For kinase assays, a 24 μL aliquot of lysate containing Cfluc-kinase and Fos-Nfluc was incubated for 2 hours with either 1 μL of DMSO (for no-inhibitor control) or compound solution in DMSO in presence of a kinase specific probe. 80 μL of luciferin assay reagent was added to each solution and luminescence was immediately measured on a luminometer.
The % Inhibition and % Activity Remaining was calculated using the following equation: […]
The % Activity Remaining was plotted against compound concentration and the IC50 was determined for each compound using a minimum 8-point curve.

FYN = biological target: T2, FYN (Homo sapiens, UniProt P06241); assay: KINOMEscan competition binding screen, FYN; details: for remaining binding at 10 µM: read-out: % Ctrl @ 10 μM
T2 construct: purchased Eurofins DiscoverX Corporation
T2 sequence (P06241 whole entry): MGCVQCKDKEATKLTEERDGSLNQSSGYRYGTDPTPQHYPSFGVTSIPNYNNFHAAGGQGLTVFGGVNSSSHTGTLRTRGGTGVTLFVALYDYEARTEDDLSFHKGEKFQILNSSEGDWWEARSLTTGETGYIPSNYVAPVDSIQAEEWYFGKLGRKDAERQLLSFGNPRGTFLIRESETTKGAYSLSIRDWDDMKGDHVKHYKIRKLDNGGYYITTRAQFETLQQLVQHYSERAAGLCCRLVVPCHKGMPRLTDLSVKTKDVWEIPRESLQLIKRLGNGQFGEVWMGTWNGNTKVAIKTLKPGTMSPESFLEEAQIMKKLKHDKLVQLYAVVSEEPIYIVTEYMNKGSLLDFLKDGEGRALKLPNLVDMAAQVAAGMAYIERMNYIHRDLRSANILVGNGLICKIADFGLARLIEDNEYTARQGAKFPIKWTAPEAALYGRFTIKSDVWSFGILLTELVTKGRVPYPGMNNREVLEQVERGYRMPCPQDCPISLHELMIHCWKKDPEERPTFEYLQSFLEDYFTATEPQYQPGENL
Experimental: The KINOMEscan™ screening platform (Eurofins DiscoverX Corporation, San Diego, USA) was performed using an active site-directed competition binding assay to quantitatively measure interactions between BK40143, BK40197, BK40195, and BK40196 and more than 450 human kinases and disease relevant mutant variants. […] Screening “hits” were identified by measuring the amount of kinase captured in test (BK40143, BK40197, BK40195, and BK40196) versus control samples by using a quantitative and ultra-sensitive qPCR method that detects the associated DNA label. BK40143, BK40197, BK40195, and BK40196 were screened at 10 μM concentration, and results for primary screen binding interactions were reported as ‘% Ctrl’ (POC), where lower numbers indicate stronger hits and calculated as follows:
[formula] • test compound=BK40143 or BK40197 or BK40195 or BK40196 • negative control=DMSO (100% Ctrl) • positive control=control compound (0% Ctrl)
Based on screening data of profiled compounds, a proportional relationship between primary screening results and corresponding compound/target affinities can be described as binding constants (Kd values) for the indicated ranges of percent of control (PoC) values, with tighter binding (higher affinity) interactions associated with lower PoC values, and weaker binding (lower affinity) associated with higher PoC values. Briefly, kinase-tagged T7 phage strains were grown in parallel in 24-well blocks in an E. coli host derived from the BL21 strain. E. coli were grown to log-phase and infected with T7 phage from a frozen stock (multiplicity of infection=0.4) and incubated with shaking at 32° C. until lysis (90-150 minutes). The lysates were centrifuged (6,000×g) and filtered ([…]) to remove cell debris. The remaining kinases were produced in HEK-293 cells and subsequently tagged with DNA for qPCR detection. Streptavidin-coated magnetic beads were treated with biotinylated small molecule ligands for 30 minutes at room temperature to generate affinity resins for kinase assays. The liganded beads were blocked with excess biotin and washed with blocking buffer (SeaBlock (Pierce), 1% BSA, 0.05% Tween 20, 1 mM DTT) to remove unbound ligand and to reduce non-specific phage binding. Binding reactions were assembled by combining kinases, liganded affinity beads, and test compounds in 1× binding buffer (20% SeaBlock, 0.17×PBS, 0.05% Tween 20, 6 mM DTT). Test compounds were prepared as 100× stocks in 100% DMSO and directly diluted into the assay. All reactions were performed in polypropylene 384-well plates in a final volume of 0.02 ml. The assay plates were incubated at room temperature with shaking for 1 hour and the affinity beads were washed with wash buffer (1×PBS, 0.05% Tween 20). The beads were then re-suspended in elution buffer (1×PBS, 0.05% Tween 20, 0.5 μM non-biotinylated affinity ligand) and incubated at room temperature with shaking for 30 minutes. The kinase concentration in the eluates was measured by qPCR.

mast cells (spleen) = assay: MC maturation in the spleen of transgenic APP mice by flow cytometry; assay type: in vivo; details: 20 and 40 mg/kg intraperitoneal, six weeks, vs DMSO
Experimental: The studies in this example compared the number of immature MCs to the number of mature MCs in the spleen.
12-month-old transgenic APP mice were injected intraperitoneally with 20 mg/kg BK40196, 40 mg/kg BK40196, or DMSO for six weeks before having spleens collected for analysis. Spleen samples were then treated with the three flow-conjugated antibodies and analyzed for maturation of mast cell progenitors to mature mast cells, as described in Example 5. Differences were compared using an unpaired Student's t-test.

peripheral mast cells = assay: Mature peripheral mast cells in blood of wild-type C57BL/6 mice by flow cytometry; assay type: in vivo; details: 50 mg/kg per day intraperitoneal for five days, p=0.06
Experimental: (§1) Wild-type C57BL/6 mice were dosed with BK40197 via intraperitoneal injection at 50 mg/kg (maximum tolerated dose) per day for five days before blood samples were taken and peripheral mast cells were isolated via flow cytometry. Cell gating was performed using antibodies against specific epitopes for cells: CD45 antibody for leukocytes, FceR1 antibody for mature mast cells, and CD117 antibody for immature and mature mast cells.

[1] = Maximum tolerated dose in wild-type C57BL/6 mice; details: mouse, in vivo, ip, intraperitoneal injection, per day
Experimental: as §1

T1 sequence (Q08345 19-913): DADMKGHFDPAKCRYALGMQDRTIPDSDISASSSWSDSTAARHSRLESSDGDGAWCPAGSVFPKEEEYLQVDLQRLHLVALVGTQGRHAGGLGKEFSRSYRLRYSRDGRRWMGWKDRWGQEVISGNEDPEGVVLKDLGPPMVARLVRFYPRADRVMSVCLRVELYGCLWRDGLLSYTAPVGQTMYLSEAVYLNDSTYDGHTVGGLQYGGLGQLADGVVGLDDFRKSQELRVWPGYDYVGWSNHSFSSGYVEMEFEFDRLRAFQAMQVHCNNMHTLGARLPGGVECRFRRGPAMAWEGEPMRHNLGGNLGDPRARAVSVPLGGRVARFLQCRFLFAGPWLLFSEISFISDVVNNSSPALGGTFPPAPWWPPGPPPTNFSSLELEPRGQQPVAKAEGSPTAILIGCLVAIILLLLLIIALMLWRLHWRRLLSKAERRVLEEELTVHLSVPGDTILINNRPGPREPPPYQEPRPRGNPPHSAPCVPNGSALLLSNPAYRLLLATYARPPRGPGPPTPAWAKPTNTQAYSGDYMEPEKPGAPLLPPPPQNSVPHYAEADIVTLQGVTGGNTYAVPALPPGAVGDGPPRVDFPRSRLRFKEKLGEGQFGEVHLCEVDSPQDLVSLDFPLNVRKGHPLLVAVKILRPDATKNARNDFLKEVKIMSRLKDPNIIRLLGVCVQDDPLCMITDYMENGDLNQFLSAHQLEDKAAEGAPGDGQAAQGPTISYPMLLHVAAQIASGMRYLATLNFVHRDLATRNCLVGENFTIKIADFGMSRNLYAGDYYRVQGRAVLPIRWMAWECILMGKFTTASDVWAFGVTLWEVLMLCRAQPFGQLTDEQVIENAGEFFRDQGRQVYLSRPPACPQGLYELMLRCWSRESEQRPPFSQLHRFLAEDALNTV

Cc1cccc(-c2cc3nccc(Nc4ccccc4)c3s2)c1 [BK40143] gave an IC50 (DDR1) of 7050 ± 1050 nM, an inhibition at 10 µM (FYN) of 90% and a remaining binding at 10 µM (FYN) of 10%.

For COc1cccc(Nc2ccnc3cc(-c4cccc(C)c4)sc23)c1 [BK40195], the IC50 (DDR1) was 2200 ± 260 nM, the inhibition at 10 µM (FYN) was 97.6% and the remaining binding at 10 µM (FYN) was 2.4%.

Compound Cc1cccc(-c2cc3nccc(Nc4cccc(O)c4)c3s2)c1 [BK40196] has an IC50 (DDR1) of 1070 ± 130 nM, an inhibition at 10 µM (FYN) of 100% and a remaining binding at 10 µM (FYN) of 0%. For the same compound, the “total number of mature MCs (CD117+/FceR1+) in the spleen” value (mast cells (spleen); dose-dependent) was “significantly reduced”, the “total number of mature MCs (FceR1+) in the spleen” value (mast cells (spleen); dose-dependent) was “significantly reduced” and the “ratio of immature MCs (CD117 only) to mature MCs (CD117 and FceR1) in the spleen” value (mast cells (spleen)) was “increased”.

For Cc1cccc(-c2cc3nccc(N4CCOCC4)c3s2)c1 [BK40197], the inhibition at 10 µM (FYN) was 44%, the remaining binding at 10 µM (FYN) was 56% and the “reduction of gating for mature MCs (CD117+/FceR1+) compared to DMSO” value (peripheral mast cells) was 48%. The MTD at 5 days [1] was 50 mg/kg.

From patent publication US20240423995A1, “C-KIT INHIBITORS AND USES FOR TREATING AND PREVENTING INFLAMMATORY CONDITIONS” (GEORGETOWN UNIVERSITY, priority 2023, published 2024)
